Earlier results, collected in EP1587517B1, “ANTI-PROTOZOAL COMPOSITIONS COMPRISING DICLAZURIL” (JANSSEN PHARMACEUTICA N.V., priority 2003, dated 2004).
Converted amounts (≈) assume the structure as drawn. Where two headings read alike, the source gives them in different places.

solubility (N,N-dimethylformamide): 32.6 mg/mL (≈ 80 mM)
solubility (dimethyl sulphoxide): 48 mg/mL (≈ 118 mM)
solubility (tetrahydrofuran): 8.2 mg/mL (≈ 20.1 mM)
saturation concentrations in water (water): below 1 µg/L
SMILES: N#CC(c1ccc(Cl)cc1)c1c(Cl)cc(-n2ncc(=O)[nH]c2=O)cc1Cl (stereo not shown) [diclazuril]
